# Numbers after ± are expanded uncertainties.
# Conditions: Crystal
row,SMILES,Normal melting temperature
1,Nc1cccc(O)c1 [3-hydroxybenzenamine],123.7 ± 1 °C
2,"COc1cc(OC)c(C(=O)O)cc1OC [2,4,5-trimethoxybenzoic acid]",144.8 ± 1 °C
3,CC(=O)Nc1ccc(C)cc1 [1-acetamido-4-methylbenzene],151 ± 1 °C
4,Nc1ccccc1O [2-hydroxybenzenamine],174.5 ± 1 °C
5,"COc1cc(C(=O)O)cc(OC)c1OC [3,4,5-trimethoxybenzoic acid]",171.4 ± 1 °C
6,CC(=O)Nc1ccccc1C [o-acetotoluide],109.6 ± 1 °C

# — the NIST ThermoML archive (doi:10.1021/je049878m)
